Data as given in the supplement of paper PMC11208160.

Assay: recombinant UMI read abundance after kanamycin selection (control-corrected) (log10(CPM+1)); higher = more efficient recombination; extreme values may be limits of the assay; sequences stand for … in AGTGCAGAGAAAATCGGCCAGTTTTCTCTGCCTGCAGTCCGCATGCCGTGGGACCCCTTGGGTTCTAACCTGTTGCCTAGATTTATGCAGCGGACTGCCTTTCTCCCAAAGTGATAAACCGG…AGGTTGGTTTCACT; site = the 11-nt donor
Outline: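 Reported values are log10(CPM+1) from a pooled Escherichia coli screen of donor and donor-binding-loop pairs for the IS621 bridge recombinase. Selection used IPTG (0.07 mM) plus kanamycin, against unselected plating, each in two replicates. Recombinant UMIs were amplified across the donor–target junction, sequenced, converted to CPM, averaged over replicates and scaled by control-derived factors.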
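Further: IS621 bridge recombinase in Escherichia coli cells against a fixed T5 target plasmid.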

Sequence | recombinant UMI read abundance (log10)
CAGTCGACATGGACCGGTTTTCCCGGTAATCCGTATTTGGG (site CGGTCGACTCC) | 0.0115
CAGTCGACATGGACCGGTTTTCCCGGTAATCCGTATTTGGG (site CTGTCGACTCC) | 0.0261
CAGTCGACATGGACCGGTTTTCCCGGTAATCCGTATTTGGG (site GAGTCGACTCC) | 0.0417
CAGTCGACATGGACCGGTTTTCCCGGTAATCCGTATTTGGG (site TAGTCGACTCC) | 0.01
CAGTCTACATGGACCGGTTTTCCCGGTAATCCGTATTTGGG (site CAGTCAACTCC) | 0.0237
CAGTCTACATGGACCGGTTTTCCCGGTAATCCGTATTTGGG (site CAGTCCACTCC) | 0.0106
CAGTCTACATGGACCGGTTTTCCCGGTAATCCGTATTTGGG (site CAGTCGACTCC) | 0.00653
CAGTCTACATGGACCGGTTTTCCCGGTAATCCGTATTTGGG (site CAGTCTACTCC) | 0.0109
CAGTTATCATGGACCGGTTTTCCCGGTAATCCGTATTTGTG (site CAGTTATCTCA) | 3.18
CAGTTGGCATGGACCGGTTTTCCCGGTAATCCGTATTTGTG (site CAGTTGGCTCA) | 1.47
CATAACGCATGGACCGGTTTTCCCGGTAATCCGTATTTGGG (site CATAACGCTCC) | 0.802
CATAACGCATGGACCGGTTTTCCCGGTAATCCGTATTTGTG (site TGAGGGCCTGC) | 0
CATAGCCCATGGACCGGTTTTCCCGGTAATCCGTATTTGCC (site CATAGCCCTGG) | 0
CATAGGGCATGGACCGGTTTTCCCGGTAATCCGTATTTGTC (site CATAGGGCTGA) | 2.5
CATATCCCATGGACCGGTTTTCCCGGTAATCCGTATTTGCG (site CATATCCCTCG) | 0.847
CATATCTCATGGACCGGTTTTCCCGGTAATCCGTATTTGAC (site CATATCTCTGT) | 2.52
CATATTCCATGGACCGGTTTTCCCGGTAATCCGTATTTGCT (site CATATTCCTAG) | 0
CATCAGTCATGGACCGGTTTTCCCGGTAATCCGTATTTGAT (site CATCAGTCTAT) | 2.04
CATCATGCATGGACCGGTTTTCCCGGTAATCCGTATTTGTT (site CATCATGCTAA) | 1.58
CATCCGGCATGGACCGGTTTTCCCGGTAATCCGTATTTGTC (site CATCCGGCTGA) | 0.293
CATCGTTCATGGACCGGTTTTCCCGGTAATCCGTATTTGCA (site CATCGTTCTTG) | 2.25
CATCTCGCATGGACCGGTTTTCCCGGTAATCCGTATTTGCA (site CATCTCGCTTG) | 0.985
CATCTGCCATGGACCGGTTTTCCCGGTAATCCGTATTTGCC (site CATCTGCCTGG) | 0
CATGCAGCATGGACCGGTTTTCCCGGTAATCCGTATTTGAG (site CATGCAGCTCT) | 1.51
CATGCCCCATGGACCGGTTTTCCCGGTAATCCGTATTTGGG (site CATGCCCCTCC) | 0.00831

Sequence | recombinant UMI read abundance (log10)
CATGGAACATGGACCGGTTTTCCCGGTAATCCGTATTTGTT (site CATGGAACTAA) | 1.85
CATGGAACATGGACCGGTTTTCCCGGTAATCCGTATTTGTT (site CCTGGAACTAA) | 0.00373
CATGGAACATGGACCGGTTTTCCCGGTAATCCGTATTTGTT (site CGTGGAACTAA) | 0.0146
CATGGAACATGGACCGGTTTTCCCGGTAATCCGTATTTGTT (site CTTGGAACTAA) | 0.00575
CATGGACCATGGACCGGTTTTCCCGGTAATCCGTATTTGGG (site CATGGACCTCC) | 0.0171
CATGTAACATGGACCGGTTTTCCCGGTAATCCGTATTTGGG (site CATGTAACTCC) | 0.209
CATTAAACATGGACCGGTTTTCCCGGTAATCCGTATTTGCC (site CATTAAACTGG) | 1.51
CATTACCCATGGACCGGTTTTCCCGGTAATCCGTATTTGCC (site CATTACCCTGG) | 0
CATTAGACATGGACCGGTTTTCCCGGTAATCCGTATTTGAG (site CATTAGACTCT) | 1.89
CATTAGACATGGACCGGTTTTCCCGGTAATCCGTATTTGAG (site CCTTAGACTCT) | 0.769
CATTAGACATGGACCGGTTTTCCCGGTAATCCGTATTTGAG (site CGTTAGACTCT) | 0.492
CATTAGACATGGACCGGTTTTCCCGGTAATCCGTATTTGAG (site CTTTAGACTCT) | 0.0129
CATTAGGCATGGACCGGTTTTCCCGGTAATCCGTATTTGCT (site CATTAGGCTAG) | 1.54
CATTATGCATGGACCGGTTTTCCCGGTAATCCGTATTTGGA (site AATTATGCTTC) | 0.0205
CATTATGCATGGACCGGTTTTCCCGGTAATCCGTATTTGGA (site CATTATGCTTC) | 1.07
CATTATGCATGGACCGGTTTTCCCGGTAATCCGTATTTGGA (site GATTATGCTTC) | 0.00887
CATTATGCATGGACCGGTTTTCCCGGTAATCCGTATTTGGA (site TATTATGCTTC) | 0.208
CATTCAGCATGGACCGGTTTTCCCGGTAATCCGTATTTGCA (site CATTCAGCTTG) | 1.05
CATTCATCATGGACCGGTTTTCCCGGTAATCCGTATTTGCT (site CATTCATCTAG) | 1.4
CATTCATCATGGACCGGTTTTCCCGGTAATCCGTATTTGCT (site CGATCATCTAG) | 0.633
CATTCGCCATGGACCGGTTTTCCCGGTAATCCGTATTTGAG (site CATTCGCCTCT) | 0.00436
CATTCGGCATGGACCGGTTTTCCCGGTAATCCGTATTTGCA (site CATTCGGCTTG) | 1.15
CATTGAGCATGGACCGGTTTTCCCGGTAATCCGTATTTGTA (site CATTGAGCTTA) | 2.06
CATTGCCCATGGACCGGTTTTCCCGGTAATCCGTATTTGAC (site CATTGCCCTGT) | 0.844
CATTTGGCATGGACCGGTTTTCCCGGTAATCCGTATTTGCT (site CATTTGGCTAG) | 0

Sequence | recombinant UMI read abundance (log10)
CATTTGGCATGGACCGGTTTTCCCGGTAATCCGTATTTGCT (site CCTTTGGCTAG) | 0
CATTTGGCATGGACCGGTTTTCCCGGTAATCCGTATTTGCT (site CGTTTGGCTAG) | 0
CATTTGGCATGGACCGGTTTTCCCGGTAATCCGTATTTGCT (site CTTTTGGCTAG) | 0.00821
CATTTGGCATGGACCGGTTTTCCCGGTAATCCGTATTTGGA (site CAATTGGCTTC) | 0.313
CATTTGGCATGGACCGGTTTTCCCGGTAATCCGTATTTGGA (site CACTTGGCTTC) | 0.438
CATTTGGCATGGACCGGTTTTCCCGGTAATCCGTATTTGGA (site CAGTTGGCTTC) | 0.466
CATTTGGCATGGACCGGTTTTCCCGGTAATCCGTATTTGGA (site CATTTGGCTTC) | 0.328
CCAAAAGCATGGACCGGTTTTCCCGGTAATCCGTATTTGAT (site CCAAAAGCTAT) | 1.34
CCAAAAGCATGGACCGGTTTTCCCGGTAATCCGTATTTGAT (site CCCAAAGCTAT) | 0
CCAAAAGCATGGACCGGTTTTCCCGGTAATCCGTATTTGAT (site CCGAAAGCTAT) | 0
CCAAAAGCATGGACCGGTTTTCCCGGTAATCCGTATTTGAT (site CCTAAAGCTAT) | 0
CCAAAGACATGGACCGGTTTTCCCGGTAATCCGTATTTGCA (site CCAAAGACTTG) | 2.26
CCAACTTCATGGACCGGTTTTCCCGGTAATCCGTATTTGAT (site CCAACTTCTAT) | 0
CCAATATCATGGACCGGTTTTCCCGGTAATCCGTATTTGAG (site CCAATATCTCT) | 1.21
CCAATCACATGGACCGGTTTTCCCGGTAATCCGTATTTGGG (site CCAATCACTCC) | 0.336
CCAATTGCATGGACCGGTTTTCCCGGTAATCCGTATTTGAG (site CCAATTGCTCT) | 0.865
CCACAGTCATGGACCGGTTTTCCCGGTAATCCGTATTTGTG (site CCACAGTCTCA) | 1.93
CCACATCCATGGACCGGTTTTCCCGGTAATCCGTATTTGAC (site ACACATCCTGT) | 0
CCACATCCATGGACCGGTTTTCCCGGTAATCCGTATTTGAC (site CCACATCCTGT) | 0
CCACATCCATGGACCGGTTTTCCCGGTAATCCGTATTTGAC (site GCACATCCTGT) | 0
CCACATCCATGGACCGGTTTTCCCGGTAATCCGTATTTGAC (site TCACATCCTGT) | 0
CCACGTGCATGGACCGGTTTTCCCGGTAATCCGTATTTGAT (site CCAAGTGCTAT) | 0.0041
CCACGTGCATGGACCGGTTTTCCCGGTAATCCGTATTTGAT (site CCACGTGCTAT) | 0.871
CCACGTGCATGGACCGGTTTTCCCGGTAATCCGTATTTGAT (site CCAGGTGCTAT) | 0.0128
CCACGTGCATGGACCGGTTTTCCCGGTAATCCGTATTTGAT (site CCATGTGCTAT) | 0.0143
